Test results from patent publication US12221449B2, “Pyrrolopyrimidine derivative and use thereof” (WUHAN HUMANWELL INNOVATIVE DRUG RESEARCH AND DEVELOPMENT …, priority 2019, dated 2025).
Values after ≈ are worked out from the molar mass of the structure shown. Like-named read-outs stand apart in the source and are kept apart here.

How the values were obtained:
[1] = Pharmacokinetic test in rats; assay type: in vivo, male SD rats; details: for AUC(0-t) / clearance / half-life / Vd / Cmax / Tmax: male, SD, rat, plasma; for Vd: read-out: Vz
Experimental: (§1) For the in vivo pharmacokinetic test of rats, 6 male SD rats were used, 180-240 g, fasted overnight. […] The blood samples were centrifuged at 8,000 rpm at 4° C. for 6 min, and plasma was collected and stored at −20° C. The plasma at each time point was taken and added with an acetonitrile solution containing internal standard in 3-5 times the amount, vortexed and mixed for 1 min, and centrifuged at 13,000 rpm at 4° C. for 10 min. The supernatant was collected, added and mixed with water in 3 times the amount. An appropriate amount of the mixture was taken for LC-MS/MS analysis. The main pharmacokinetic parameters were analyzed using WinNonlin 7.0 software with non-compartmental model.

[2] = target: hERG channels (CHO cell line stably expressing hERG) (Homo sapiens (Human), UniProt Q12809); test: Inhibitory effect on hERG by full-automatic electrophysiological patch clamp QPatch; assay type: cell-based; details: for IC50: CHO hERG cells, QPatch; for hERG IC50/ATX IC50: ratio of hERG IC50 (μM) to ATX IC50 (nM)
Chain of hERG channels (CHO cell line stably expressing hERG) (Q12809 whole entry): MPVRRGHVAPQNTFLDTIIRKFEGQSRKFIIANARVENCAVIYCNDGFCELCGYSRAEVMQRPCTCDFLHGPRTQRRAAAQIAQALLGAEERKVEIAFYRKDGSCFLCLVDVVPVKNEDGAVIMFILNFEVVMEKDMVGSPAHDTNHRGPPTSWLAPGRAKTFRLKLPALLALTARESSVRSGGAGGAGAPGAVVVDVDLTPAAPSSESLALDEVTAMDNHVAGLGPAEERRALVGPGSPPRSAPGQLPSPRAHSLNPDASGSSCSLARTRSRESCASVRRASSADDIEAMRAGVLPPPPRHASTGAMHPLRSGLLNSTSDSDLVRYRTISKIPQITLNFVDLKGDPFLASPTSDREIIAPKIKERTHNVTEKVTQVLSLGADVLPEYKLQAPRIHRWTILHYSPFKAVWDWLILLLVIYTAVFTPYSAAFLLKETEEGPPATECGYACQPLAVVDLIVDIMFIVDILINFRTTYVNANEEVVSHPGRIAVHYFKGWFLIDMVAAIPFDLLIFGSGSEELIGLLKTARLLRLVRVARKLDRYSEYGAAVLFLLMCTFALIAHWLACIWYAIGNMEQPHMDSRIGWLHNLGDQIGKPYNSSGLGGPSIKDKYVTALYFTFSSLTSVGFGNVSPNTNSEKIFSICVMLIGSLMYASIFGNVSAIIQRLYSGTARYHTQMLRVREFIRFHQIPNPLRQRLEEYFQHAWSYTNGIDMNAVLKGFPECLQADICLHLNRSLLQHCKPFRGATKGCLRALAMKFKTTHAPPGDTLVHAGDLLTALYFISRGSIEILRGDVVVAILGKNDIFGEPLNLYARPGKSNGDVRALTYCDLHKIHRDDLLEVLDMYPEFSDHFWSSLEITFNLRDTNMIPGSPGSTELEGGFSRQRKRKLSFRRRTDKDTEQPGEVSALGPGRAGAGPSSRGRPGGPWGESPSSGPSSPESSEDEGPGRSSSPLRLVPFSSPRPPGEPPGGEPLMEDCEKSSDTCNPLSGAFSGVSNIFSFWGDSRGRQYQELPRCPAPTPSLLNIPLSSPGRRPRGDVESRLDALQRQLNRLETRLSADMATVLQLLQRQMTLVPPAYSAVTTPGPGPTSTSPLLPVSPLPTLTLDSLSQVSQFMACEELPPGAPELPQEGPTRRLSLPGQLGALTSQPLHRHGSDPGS
Experimental: Full-automatic electrophysiological patch clamp QPatch was used to detect the inhibitory effect of compounds on hERG. Cells used in this test were CHO cell line transfected with cDNA of hERG and stably expressing hERG channels (provided by Sophion Bioscience, Denmark), and the cell passage number was P24. The cells were cultured in a medium containing the following components (all purchased from Invitrogen): Ham's F12 medium, inactivated fetal bovine serum (10% (v/v)), hygromycin B (100 μg/ml), and Geneticin (100 μg/ml). CHO hERG cells were grown in a petri dish containing the above-mentioned medium and cultured in an incubator at 37° C. and containing 5% Co2.
The compound to be tested was prepared as a 10 mM stock solution in DMSO solvent, the compound was diluted to 3 mM, 1 mM, 0.3 mM, and 0.1 mM with DMSO, and then the compound was diluted to 30 μM, 10 μM, 3 μM, 1 μM, 0.3 μM and 0.1 μM with the extracellular fluid, so that except that the final concentration of DMSO in the 30 μM compound was 0.3%, the final concentration of DMSO in compound solutions of all other concentrations was 0.1%.
The CHO hERG cells, after being digested and resuspended, were added to the fully automated QPatch system (Sophion, Denmark), and subjected to a test according to the following preset procedure.
After reaching the ruptured whole cell configuration state in the initial stage, the whole cell current was recorded at room temperature (about 25° C.), and the cells were recorded for at least 120 seconds in order to achieve stability. The stable cells were selected for the test. During the whole test, the cell patch clamp was at a voltage of −80 mV, the cell patch clamp voltage was depolarized to +20 mV to activate the hERG potassium channels, and after 2.5 seconds, the cell patch clamp voltage was at −50 mV to eliminate inactivation and generate outward tail current. The peak tail current was used as the value of the hERG current. The voltage mode described above was applied to the cells for electrophysiological tests every 15 seconds. An intracellular liquid containing 0.1% dimethyl sulfoxide (solvent) was added to the cells to establish a baseline, and then the current was allowed to stabilize for 3 min. After the compound solution was added, the cells were kept in the test environment until the effect of the compound reached a steady state or until reaching 4 min. In the test experiments with different concentration gradients of the compound, the compound was added to the clamped cells from low to high concentration. After the compound test was finished, the cells were washed with the extracellular fluid until the current returned to a stable state.
The test data were analyzed by Qpatch analysis software provided by Sophion, Excel, and Graphpad Prism.

[3] = target: ATX enzyme activity in human plasma (Homo sapiens (Human), UniProt Q13822); test: Inhibition test of ATX enzyme activity in human plasma (LPA18:2 formation); assay type: biochemical; details: 37° C., 3 h
Experimental: Whole blood was collected from healthy volunteers and anticoagulated with heparin. The blood collection tubes were centrifuged at 3,000 rpm for 10 min, and the plasma was taken and stored at −80° C. for use.
The compound was serially diluted with DMSO according to the conventional concentration requirements, and then 3 μL of the diluted compound was added to a 96-well plate, and 147 μL of PBS was added to each well containing 3 μL of the compound. After mixing homogenously, 50 μL of the mixture was removed and added to a new 96-well plate. The human plasma was taken out from the −80° C. refrigerator and thawed through rapid shaking in a 37° C. water bath. 50 μL of the human plasma was taken and added to the 96-well plate containing 50 μL of the diluted compound (the final system was 1% DMSO). The group without the compound was set as the positive control group. The 96-well plate was shaken and mixed uniformly, and incubated at 37° C. for 3 h. A blank group was also provided, and the plasma of the blank group was stored at −80° C. The blank group is provided to determine the baseline concentration of endogenous LPA.
After the incubation was finished, the blank group was thawed on ice and transferred to an incubation plate. Excess acetonitrile containing the internal standard LPA17:0 was added to the incubation plate to precipitate the plasma protein. After vortex centrifugation, the supernatant was taken and diluted, and a peak area of LPA18:2 and a peak area of internal standard LPA17:0 were detected using LC-MSMS mass spectrometry.
According to the inhibition rates of different concentrations of the compound, the IC50 value of the compound, which is related to inhibition of ATX enzyme activity in human plasma, was calculated.

[4] = tested on: idiopathic pulmonary fibrosis model (IPF model) induced by bleomycin; test: IPF model induced by bleomycin in rats; assay type: in vivo, male BN rats; details: 30 mg/kg orally twice a day; for weight reduction of the animals: 21 days, compared with control compound group, FIG. 1
Experimental: Using male BN rats, 180-240 g, idiopathic pulmonary fibrosis model (IPF model) was induced with a dose of 5 U/kg bleomycin. […] On the second day after the model was established, the animals were orally administered by gavage twice a day, where the administration group was administered with a dose of 30 mg/kg each time, and the solvent control group was administered with a blank solvent, and the administration continued for 21 days. During the administration, the body weight was weighed every three days. On day 21 of administration, alveolar lavage was conducted 2 h after the first administration, the inflammatory cells in the lavage fluid were counted, and the associated biomarkers in the supernatant of the lavage fluid were detected. After lavage, the left lungs of the rats were fixed, and stained with Masson's trichrome staining to score the fibrosis pathology. The remaining lung lobes were cryopreserved. The supernatant of the alveolar lavage fluid and the freshly frozen lung tissue of the three compound groups were taken and detected for a content of TGF-β1 protein and an amount of total protein by using ELISA, and the amount of TGF-β1 per milligram of total protein was calculated.

[5] = Thermodynamic solubility test; assay type: physicochemical; details: for solubility: thermodynamic from solid
Experimental: The compound was accurately weighed, and the prepared phosphate buffer (pH 7.4), FeSSIF solution (pH 5.8) and FaSSGF solution (pH 1.6) were added to prepare a solution with a concentration of 4 mg/mL, which was shaken at 1,000 rpm for 1 hour, and then incubated overnight at room temperature. After the incubation, the solution was centrifuged at 12,000 rpm for 10 min to remove undissolved particles, and the supernatant was transferred to a new centrifuge tube. The supernatant was diluted appropriately, then added with an acetonitrile solution containing the internal standard, and quantified using a standard curve prepared with the same matrix.

[6] = Human liver microsome stability test; assay type: in vitro ADME; details: human liver microsomes; for Remaining percentage (%) of compound after incubation for 30 min: 37° C., NADPH; for half-life at 1 µM: human
Experimental: The human liver microsome stability test was performed by incubating the compound and human liver microsomes in vitro. First, the test compound is prepared as a 10 mM stock solution in DMSO solvent, and then the compound was diluted to 0.5 mM with acetonitrile. Human liver microsomes (Corning) were diluted with PBS and prepared as a microsome/buffer solution, which was used to dilute 0.5 mM of the compound into a working solution. […] A deep-well multiwell plate was taken, 30 μL of the working solution and 15 μL of pre-warmed NADPH solution (6 mM) were sequentially added to each well to initiate a reaction, and the reaction was incubated at 37° C. […] After centrifugation, the supernatant was collected, and added with purified water in a ratio of 1:1 to perform LC-MS/MS detection. […] T1/2 was calculated by using Excel.

[7] = cited from earlier work; for probability of discontinuation due to serious adverse events: patients taking the drug, Maher et al. 2019
[8] = target: Autotaxin (ATX) enzyme (Homo sapiens (Human), UniProt Q13822); test: Autotaxin (ATX) enzyme activity inhibition assay (Cayman Autotaxin Inhibitor Screening Assay Kit); assay type: biochemical; details: OD405, 37° C., 30 min; read-out: IC50, inhibitory activity on ATX activity
Experimental: Subsequently, the 8 concentrations were diluted with Autotaxin Assay buffer (1×) provided in the kit into 19× compound working solutions (DMSO content was 1.9%). The Autotaxin Assay Reagent (10×) was taken out and diluted by 10 times with Autotaxin Assay Buffer (1×). The Autotaxin Substrate was taken out, dissolved by adding 1.2 mL of Autotaxin Assay Buffer (1×), mixed evenly and stood at room temperature.

[9] = Pharmacokinetic test in mice; assay type: in vivo, male ICR mice
Experimental: as §1
For the in vivo pharmacokinetic test of mice, 18 male ICR mice were used, 20-25 g, fasted overnight. Among them, 9 mice were orally administered by gavage (10 mg/kg), bloods of 3 mice were collected at each blood collection time point, and the bloods of the 9 mice were alternately collected. The other 9 mice were intravenously administered with the compound (1 mg/kg), bloods of 3 mice were collected at each blood collection time point, and the bloods of the 9 mice were alternately collected. The rest operations were the same as that of pharmacokinetic test in rats.

[10] = day 21, compared with solvent control group, FIG. 2
[11] = FaSSGF solution, fassgf or other biorelevant, FaSSGF, pH 1.6, thermodynamic, read-out: Dissolubility FaSSGF (pH 1.6)
[12] = FeSSIF solution, FeSSIF, pH 5.8, thermodynamic, read-out: Dissolubility FeSSIF (pH 5.8)
[13] = phosphate buffered saline, aqueous buffer, PBS, pH 7.4, thermodynamic, read-out: Dissolubility PBS (pH 7.4)
[14] = intravenous administration 1 mg/kg
[15] = oral administration by gavage 10 mg/kg
[16] = male, ICR, mouse, plasma, intravenous administration 1 mg/kg
[17] = male, ICR, mouse, plasma, oral administration by gavage 10 mg/kg

C[C@H](Cc1cnn[nH]1)OCC(=O)N1Cc2cnc(NC3Cc4ccccc4C3)nc2C1 [Compound I-2R, (R)-2-((1-(1H-1,2,3-triazol-5-yl)propan-2-yl)oxy)-1-(2-((2,3-dihydro-1H-inden-2-yl)amino)-5,7-dihydro-6H-pyrrolo[3,4-d]pyrimidin-6-yl)ethan-1-one]
clearance rate (CL) relative to that of the control compound ([1]; fraction of control compound's CL): about ¼ | oral AUC0-t relative to that of the control compound ([1]; oral): 4.2 times | oral Cmax relative to that of the control compound ([1]; oral): 6.1 times | IC50 [2]: 9480 nM | hERG IC50/ATX IC50 [2]: 9.48/1.59 = 6.0 | IC50 [3]: 4.73 nM | weight reduction of the animals [4]: significantly less than that of the control compound group | content of TGF-β1 in the freshly frozen lung tissue [4, 10]: significantly lower than those of the solvent control group | content of TGF-β1 in the supernatant of the alveolar lavage fluid [4, 10]: significantly lower than those of the solvent control group | solubility [5, 11]: 1040 µg/mL (≈ 2470 µM) | solubility [5, 12]: 260 µg/mL (≈ 620 µM) | solubility [5, 13]: 107 µg/mL (≈ 255 µM) | Remaining percentage (%) of compound after incubation for 30 min [6]: 63.7% | half-life at 1 µM [6]: 53.6 min

Cc1ccc(=O)n(-c2ccccc2)c1 [Pirfenidone]
probability of discontinuation due to serious adverse events [7]: 20.9%

C[C@@H](Cc1cnn[nH]1)OCC(=O)N1Cc2cnc(NC3Cc4ccccc4C3)nc2C1 [Compound I-2S, (S)-2-((1-(1H-1,2,3-triazol-5-yl)propan-2-yl)oxy)-1-(2-((2,3-dihydro-1H-inden-2-yl)amino)-5,7-dihydro-6H-pyrrolo[3,4-d]pyrimidin-6-yl)ethan-1-one]
AUC(0-t) [1, 14]: 661 ng·h/mL | clearance [1, 14]: 25.2 mL/min/kg | half-life [1, 14]: 20.4 min | Vd [1, 14]: 0.74 L/kg | AUC(0-t) [1, 15]: 3690 ng·h/mL | Cmax [1, 15]: 2420 ng/mL | Tmax [1, 15]: 25.2 min | half-life [1, 15]: 115 min | IC50 [2]: 8780 nM | hERG IC50/ATX IC50 [2]: 8.87/1.40 = 6.3 | IC50 [3]: 2.1 nM | weight reduction of the animals [4]: significantly less than that of the control compound group | solubility [5, 11]: 1240 µg/mL (≈ 2960 µM) | solubility [5, 13]: 73.6 µg/mL (≈ 175 µM) | IC50 [8]: 1.4 nM | Remaining percentage (%) of compound after incubation for 30 min [6]: 42.9% | half-life at 1 µM [6]: 26.6 min

CC(Cc1cnn[nH]1)OCC(=O)N1Cc2cnc(NC3Cc4ccccc4C3)nc2C1 (racemic) [Compound I-2, 2-((1-(1H-1,2,3-triazol-5-yl)propan-2-yl)oxy)-1-(2-((2,3-dihydro-1H-inden-2-yl)amino)-5,7-dihydro-6H-pyrrolo[3,4-d]pyrimidin-6-yl)ethan-1-one]
IC50 [8]: 1.35 nM

COC(=O)c1ccc2c(c1)NC(=O)/C2=C(\Nc1ccc(N(C)C(=O)CN2CCN(C)CC2)cc1)c1ccccc1 [Nintedanib]
probability of discontinuation due to serious adverse events [7]: 26.3% | incidence of gastrointestinal reactions ([7]; patients): ≤ 50%

O=C(COCCc1cnn[nH]1)N1Cc2cnc(NC3Cc4ccccc4C3)nc2C1 [Control compound, reference compound]
T1/2 [1, 14]: 27 min | T1/2 [1, 15]: 78.6 min | Dissolubility FaSSGF (pH 1.6) ([5]; FaSSGF, pH 1.6, thermodynamic): 66.5 μg/mL | Dissolubility FeSSIF (pH 5.8) ([5]; FeSSIF, pH 5.8, thermodynamic): 18.3 μg/mL | Dissolubility PBS (pH 7.4) ([5]; PBS, pH 7.4, thermodynamic): 6.3 μg/mL | thermodynamic solubility (in words) ([5]; simulated gastric juice, simulated intestinal juice, neutral conditions): relatively poor | T1/2 [9, 14]: 20.4 min | T1/2 [9, 15]: 49.8 min | T1/2 [6]: 24.1 min | Remaining percentage (%) of compound after incubation for 30 min [6]: 41.2%

C[C@H](OCCc1c[nH]nn1)C(=O)N1Cc2cnc(NC3Cc4ccccc4C3)nc2C1 [Compound I-1S, (S)-2-(2-(1H-1,2,3-triazol-4-yl)ethoxy)-1-(2-((2,3-dihydro-1H-inden-2-yl)amino)-5,7-dihydro-6H-pyrrolo[3,4-d]pyrimidin-6-yl)propan-1-one]
IC50 [8]: 28.6 nM

C[C@@H](OCCc1c[nH]nn1)C(=O)N1Cc2cnc(NC3Cc4ccccc4C3)nc2C1 [Compound I-1R, (R)-2-(2-(1H-1,2,3-triazol-4-yl)ethoxy)-1-(2-((2,3-dihydro-1H-inden-2-yl)amino)-5,7-dihydro-6H-pyrrolo[3,4-d]pyrimidin-6-yl)propan-1-one]
AUC(0-t) [1, 14]: 828 ng·h/mL | clearance [1, 14]: 21.3 mL/min/kg | half-life [1, 14]: 25.8 min | Vd [1, 14]: 0.76 L/kg | AUC(0-t) [1, 15]: 6330 ng·h/mL | Cmax [1, 15]: 3390 ng/mL | Tmax [1, 15]: 30 min | half-life [1, 15]: 151 min | IC50 [2]: 22000 nM | hERG IC50/ATX IC50 [2]: 22.0/2.67 = 8.24 | IC50 [3]: 12 nM | solubility [5, 11]: 88.5 µg/mL (≈ 211 µM) | solubility [5, 12]: 20.4 µg/mL (≈ 48.6 µM) | solubility [5, 13]: 20.4 µg/mL (≈ 48.6 µM) | IC50 [8]: 2.67 nM | AUC(0-t) [9, 16]: 495 ng·h/mL | clearance [9, 16]: 34.8 mL/min/kg | half-life [9, 16]: 22.2 min | Vd ([9]; male, ICR, mouse, plasma, intravenous administration 1 mg/kg, read-out: Vz): 1.05 L/kg | AUC(0-t) [9, 17]: 6120 ng·h/mL | Cmax [9, 17]: 6940 ng/mL | Tmax [9, 17]: 25.2 min | half-life [9, 17]: 40.2 min | Remaining percentage (%) of compound after incubation for 30 min [6]: 86.0% | half-life at 1 µM [6]: 123 min

CC(OCCc1c[nH]nn1)C(=O)N1Cc2cnc(NC3Cc4ccccc4C3)nc2C1 (racemic) [Compound I-1, 2-(2-(1H-1,2,3-triazol-4-yl)ethoxy)-1-(2-((2,3-dihydro-1H-inden-2-yl)amino)-5,7-dihydro-6H-pyrrolo[3,4-d]pyrimidin-6-yl)propan-1-one]
IC50 [2]: 22300 nM | hERG IC50/ATX IC50 [2]: 22.3/4.24 = 5.26 | IC50 [8]: 4.24 nM | Remaining percentage (%) of compound after incubation for 30 min [6]: 87.4%
